Measured values from patent US20140193827A1 (TEVA PHARMACEUTICAL INDUSTRIES, LTD., priority 2013, published 2014).

Tested on: GA-primed murine splenocytes
Experiment: ANOVA-based pattern identification method
Assay type: cell-based, mouse
Settings: DOWN IN GA AND REF ONLY
Text: We sought to identify probes matching specific patterns of expression across experimental conditions using a technique that referred to as the ANOVA-based Pattern Identification Method.
To carry out the analysis in a general manner, we computed the 6 p-values required to do pairwise comparisons of all 4 conditions for all probes using the ANOVA1 function in MATLAB. We then identified sets of probes matching the desired pattern. In the example above, probes were identified as being only affected by PG if their 6 pairwise comparison pvalues matched the following pattern (pGA-PG<0.05, pPG-reference standard<0.05, pPG-Medium<0.05, pGAMedium>0.05, pGA-reference standard>0.05, preference standard-Medium>0.05).

Q: With glatiramer acetate [GA] as the substance, how does the AA536749 expression level read?
A: Its AA536749 expression level is 8.75.

Q: And the C5F3R expression level?
A: The C5F3R expression level was 5.814.

Q: What about the CD33 expression level of the same substance?
A: Its CD33 expression level is 6.382.

Q: And the CD63 expression level?
A: Its CD63 expression level is 7.484.

Q: And the CLEC4E expression level?
A: Its CLEC4E expression level is 6.76.

Q: And the CXCR4 expression level?
A: Its CXCR4 expression level is 9.154.

Q: And the GAS7 expression level?
A: Its GAS7 expression level is 6.685.

Q: What about the GPR97 expression level of the same substance?
A: The GPR97 expression level was 6.1434.

Q: And the KLC4 expression level?
A: Its KLC4 expression level is 7.786.

Q: What about the LOC385923 expression level of the same substance?
A: The LOC385923 expression level was 7.651.

Q: And the LOC386268 expression level?
A: The LOC386268 expression level was 6.655.

Q: And the LOC386288 expression level?
A: Its LOC386288 expression level is 7.006.

Q: And the LOC386360 expression level?
A: Its LOC386360 expression level is 9.445.

Q: What about the TMEM38B expression level of the same substance?
A: Its TMEM38B expression level is 8.3.

Q: What about the “average expression of 1100001G20RIK” value of the same substance?
A: The value was 6.239.

Q: What about the “average expression of 1110014N23RIK” value of the same substance?
A: Its value is 9.678.

Q: What about the “average expression of 1200002N14RIK” value of the same substance?
A: The value was 6.896.

Q: And the “average expression of 1300010F03R1K” value?
A: Its value is 6.604.

Q: What about the “average expression of 1300010F03RIK” value of the same substance?
A: Its value is 6.764.

Q: What about the “average expression of 1700073E17RIK” value of the same substance?
A: Its value is 5.669.

Q: What about the “average expression of 1810009N02RIK” value of the same substance?
A: The value was 8.11.

Q: And the “average expression of 1810030N24RIK” value?
A: The value was 6.84.

Q: What about the “average expression of 2010001M09RIK” value of the same substance?
A: Its value is 13.2.

Q: And the “average expression of 2310040G07RIK” value?
A: Its value is 5.712.

Q: What about the “average expression of 2310067B10RIK” value of the same substance?
A: Its value is 7.502.

Q: What about the “average expression of 2310079N02RIK” value of the same substance?
A: Its value is 9.098.

Q: And the “average expression of 2510022D24RIK” value?
A: Its value is 8.141.

Q: What about the “average expression of 2610024M03RIK” value of the same substance?
A: The value was 6.018.

Q: And the “average expression of 2610028H07RIK” value?
A: The value was 10.1.

Q: What about the “average expression of 2810402K13RIK” value of the same substance?
A: The value was 8.169.

Q: And the “average expression of 2810422O20RIK” value?
A: The value was 7.018.

Q: And the “average expression of 2900079J23RIK” value?
A: Its value is 5.766.

Q: And the “average expression of 3110004L20RIK” value?
A: The value was 5.934.

Q: What about the “average expression of 3110082D06RIK” value of the same substance?
A: The value was 5.99.

Q: What about the “average expression of 4930519F16RIK” value of the same substance?
A: Its value is 5.617.

Q: What about the “average expression of 4930572J05RIK” value of the same substance?
A: The value was 10.41.

Q: What about the “average expression of 5031439G07RIK” value of the same substance?
A: The value was 7.967.

Q: What about the “average expression of 5330417C22RIK” value of the same substance?
A: The value was 5.64.

Q: And the “average expression of 5830415F09RIK” value?
A: Its value is 6.998.

Q: What about the “average expression of 6230425C21RIK” value of the same substance?
A: Its value is 7.021.

Q: And the “average expression of 6430511F03” value?
A: Its value is 6.247.

Q: What about the “average expression of 6430526N21RIK” value of the same substance?
A: The value was 7.232.

Q: And the “average expression of 6720480F11RIK” value?
A: Its value is 5.641.

Q: What about the “average expression of 6720486H14RIK” value of the same substance?
A: Its value is 5.584.

Q: What about the “average expression of 9030025P20RIK” value of the same substance?
A: The value was 8.593.

Q: What about the “average expression of 9330152L17” value of the same substance?
A: Its value is 5.75.

Q: And the “average expression of A430043M19RIK” value?
A: The value was 6.108.

Q: And the “average expression of A630038P11RIK” value?
A: The value was 5.552.

Q: And the “average expression of A730017D01RIK” value?
A: The value was 6.519.

Q: And the “average expression of A930014P08RIK” value?
A: Its value is 5.554.

Q: What about the “average expression of ABCC4” value of the same substance?
A: Its value is 7.757.

Q: And the “average expression of ACBD4” value?
A: The value was 9.154.

Q: What about the “average expression of ACP2” value of the same substance?
A: The value was 6.811.

Q: What about the “average expression of ACTR3B” value of the same substance?
A: Its value is 6.47.

Q: What about the “average expression of ADAM11” value of the same substance?
A: Its value is 5.629.

Q: And the “average expression of AGAP1” value?
A: The value was 5.989.

Q: What about the “average expression of ANKRD13A” value of the same substance?
A: Its value is 10.24.

Q: What about the “average expression of APP” value of the same substance?
A: The value was 6.949.

Q: What about the “average expression of ARHGAP22” value of the same substance?
A: Its value is 6.192.

Q: And the “average expression of ATP6V1B2” value?
A: The value was 10.4.

Q: What about the “average expression of AW011738” value of the same substance?
A: Its value is 6.2494.

Q: What about the “average expression of B130002B06RIK” value of the same substance?
A: Its value is 5.7347.

Q: What about the “average expression of B930048N13RIK” value of the same substance?
A: The value was 5.895.

Q: And the “average expression of B930049N04RIK” value?
A: The value was 5.592.

Q: What about the “average expression of B930097H17RIK” value of the same substance?
A: Its value is 5.792.

Q: What about the “average expression of BC014795” value of the same substance?
A: Its value is 8.05.

Q: And the “average expression of BC065397” value?
A: The value was 6.46.

Q: And the “average expression of BC066107” value?
A: Its value is 6.578.

Q: And the “average expression of BMP3” value?
A: The value was 5.623.

Q: What about the “average expression of BRD2” value of the same substance?
A: The value was 11.26.

Q: And the “average expression of C330019G07RIK” value?
A: The value was 6.738.

Q: And the “average expression of C430003P19RIK” value?
A: Its value is 9.571.

Q: And the “average expression of CAGE1” value?
A: Its value is 5.862.

Q: And the “average expression of CASP1” value?
A: Its value is 11.51.

Q: What about the “average expression of CBLC” value of the same substance?
A: The value was 5.866.

Q: What about the “average expression of CD151” value of the same substance?
A: Its value is 8.029.

Q: What about the “average expression of CENTG3” value of the same substance?
A: The value was 6.784.

Q: What about the “average expression of CEPT1” value of the same substance?
A: The value was 10.22.

Q: And the “average expression of CFB” value?
A: The value was 6.244.

Q: What about the “average expression of CLEC4A1” value of the same substance?
A: Its value is 6.263.

Q: What about the “average expression of CLEC5A” value of the same substance?
A: Its value is 5.873.

Q: And the “average expression of CNTNAP3” value?
A: The value was 5.796.

Q: What about the “average expression of COgeneric” value of the same substance?
A: Its value is 8.105.

Q: What about the “average expression of CREG1” value of the same substance?
A: The value was 6.616.

Q: And the “average expression of CRTAC1” value?
A: Its value is 5.925.

Q: And the “average expression of CTSL” value?
A: The value was 5.744.

Q: What about the “average expression of D030051N19RIK” value of the same substance?
A: The value was 8.287.

Q: What about the “average expression of D030072B18RIK” value of the same substance?
A: The value was 5.56.

Q: And the “average expression of DGKQ” value?
A: Its value is 6.895.

Q: What about the “average expression of DLG3” value of the same substance?
A: The value was 7.023.

Q: What about the “average expression of DNMT3L” value of the same substance?
A: Its value is 6.042.

Q: What about the “average expression of DUSP6” value of the same substance?
A: The value was 5.768.

Q: And the “average expression of E330023P07RIK” value?
A: Its value is 5.77.

Q: And the “average expression of EG434402” value?
A: The value was 9.171.

Q: What about the “average expression of EG633640” value of the same substance?
A: Its value is 6.136.

Q: And the “average expression of ELL” value?
A: The value was 9.635.

Q: What about the “average expression of EPB4.1L3” value of the same substance?
A: Its value is 5.896.

Q: What about the “average expression of EPN3” value of the same substance?
A: Its value is 5.711.

Q: And the “average expression of ERCC4” value?
A: The value was 8.15.

Q: What about the “average expression of FA2H” value of the same substance?
A: The value was 5.977.

Q: What about the “average expression of FBXL20” value of the same substance?
A: Its value is 7.805.

Q: And the “average expression of FCMD” value?
A: The value was 6.473.

Q: What about the “average expression of FOS” value of the same substance?
A: Its value is 6.875.

Q: What about the “average expression of FRMPD1” value of the same substance?
A: Its value is 5.584.

Q: What about the “average expression of GAA” value of the same substance?
A: Its value is 8.021.

Q: And the “average expression of GALGT1” value?
A: Its value is 7.448.

Q: And the “average expression of GALNT10” value?
A: Its value is 8.096.

Q: And the “average expression of GDPD1” value?
A: Its value is 6.392.

Q: And the “average expression of GM498” value?
A: The value was 5.674.

Q: And the “average expression of GPS2” value?
A: The value was 9.303.

Q: What about the “average expression of GSTM2” value of the same substance?
A: Its value is 5.945.

Q: What about the “average expression of GTPBP1” value of the same substance?
A: Its value is 9.185.

Q: What about the “average expression of HMOX1” value of the same substance?
A: Its value is 6.561.

Q: What about the “average expression of HRSP12” value of the same substance?
A: Its value is 8.037.

Q: And the “average expression of IGK-V33” value?
A: Its value is 9.992.

Q: And the “average expression of IGLC2_J00595—IG_LAMBDA—CONSTANT_2_14” value?
A: Its value is 13.7.

Q: And the “average expression of IRAK3” value?
A: Its value is 9.019.

Q: What about the “average expression of IRF3” value of the same substance?
A: The value was 7.749.

Q: And the “average expression of IVD” value?
A: Its value is 9.212.

Q: And the “average expression of KCNC4” value?
A: The value was 5.832.

Q: What about the “average expression of KRT39” value of the same substance?
A: Its value is 5.551.

Q: And the “average expression of KRTAP5-4” value?
A: Its value is 5.651.

Q: And the “average expression of LOC193563” value?
A: Its value is 5.759.

Q: What about the “average expression of LOC238836” value of the same substance?
A: The value was 13.84.

Q: And the “average expression of LOC243025” value?
A: The value was 6.623.

Q: And the “average expression of LOC327767” value?
A: Its value is 5.978.
